How the values were obtained:
[1] = target: T1, Amine oxidase [flavin-containing] A (Homo sapiens, UniProt P21397); assay: Inhibition of MAOA (unknown origin) assessed as residual activity at 10 uM using kynuramine as substrate preincubated for 30 mins followed by substrate addition relative to control; details: read-out: Activity
T1 sequence (P21397 whole entry): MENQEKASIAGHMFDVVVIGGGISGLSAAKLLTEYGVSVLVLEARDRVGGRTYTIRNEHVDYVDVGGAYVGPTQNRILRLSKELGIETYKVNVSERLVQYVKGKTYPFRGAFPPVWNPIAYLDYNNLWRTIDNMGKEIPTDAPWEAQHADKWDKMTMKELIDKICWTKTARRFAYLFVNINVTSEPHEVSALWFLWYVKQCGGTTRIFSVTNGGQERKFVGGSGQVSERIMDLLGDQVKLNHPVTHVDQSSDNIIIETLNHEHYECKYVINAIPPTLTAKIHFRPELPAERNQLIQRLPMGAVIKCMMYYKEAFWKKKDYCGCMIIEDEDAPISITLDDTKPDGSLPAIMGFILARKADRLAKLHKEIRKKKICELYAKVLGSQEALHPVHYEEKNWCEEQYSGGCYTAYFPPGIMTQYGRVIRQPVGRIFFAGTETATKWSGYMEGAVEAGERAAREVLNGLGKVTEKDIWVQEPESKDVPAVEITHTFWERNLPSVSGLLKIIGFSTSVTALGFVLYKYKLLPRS

[2] = target: T1, Amine oxidase [flavin-containing] A
[3] = target: T2, Amine oxidase [flavin-containing] B (Homo sapiens, UniProt P27338)
T2 sequence (P27338 whole entry): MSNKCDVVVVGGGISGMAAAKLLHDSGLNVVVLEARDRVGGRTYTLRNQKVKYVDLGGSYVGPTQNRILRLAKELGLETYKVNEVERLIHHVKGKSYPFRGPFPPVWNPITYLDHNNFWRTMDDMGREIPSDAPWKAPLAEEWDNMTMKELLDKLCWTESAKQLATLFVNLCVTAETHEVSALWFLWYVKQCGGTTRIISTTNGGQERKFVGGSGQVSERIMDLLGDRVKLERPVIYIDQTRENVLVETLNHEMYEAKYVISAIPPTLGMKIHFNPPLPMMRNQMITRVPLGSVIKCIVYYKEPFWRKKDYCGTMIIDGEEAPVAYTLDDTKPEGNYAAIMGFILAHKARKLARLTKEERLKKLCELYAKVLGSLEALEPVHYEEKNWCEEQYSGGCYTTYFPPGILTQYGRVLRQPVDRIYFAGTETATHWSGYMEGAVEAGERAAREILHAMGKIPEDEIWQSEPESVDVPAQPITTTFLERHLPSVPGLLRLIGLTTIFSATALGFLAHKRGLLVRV

[4] = target: T2, Amine oxidase [flavin-containing] B; assay: Inhibition of MAOB (unknown origin) assessed as residual activity at 10 uM using benzylamine as substrate preincubated for 30 mins followed by substrate addition relative to control; details: read-out: Activity
[5] = target: Acetylcholinesterase (Electrophorus electricus, UniProt O42275)
Chain of Acetylcholinesterase (O42275 whole entry): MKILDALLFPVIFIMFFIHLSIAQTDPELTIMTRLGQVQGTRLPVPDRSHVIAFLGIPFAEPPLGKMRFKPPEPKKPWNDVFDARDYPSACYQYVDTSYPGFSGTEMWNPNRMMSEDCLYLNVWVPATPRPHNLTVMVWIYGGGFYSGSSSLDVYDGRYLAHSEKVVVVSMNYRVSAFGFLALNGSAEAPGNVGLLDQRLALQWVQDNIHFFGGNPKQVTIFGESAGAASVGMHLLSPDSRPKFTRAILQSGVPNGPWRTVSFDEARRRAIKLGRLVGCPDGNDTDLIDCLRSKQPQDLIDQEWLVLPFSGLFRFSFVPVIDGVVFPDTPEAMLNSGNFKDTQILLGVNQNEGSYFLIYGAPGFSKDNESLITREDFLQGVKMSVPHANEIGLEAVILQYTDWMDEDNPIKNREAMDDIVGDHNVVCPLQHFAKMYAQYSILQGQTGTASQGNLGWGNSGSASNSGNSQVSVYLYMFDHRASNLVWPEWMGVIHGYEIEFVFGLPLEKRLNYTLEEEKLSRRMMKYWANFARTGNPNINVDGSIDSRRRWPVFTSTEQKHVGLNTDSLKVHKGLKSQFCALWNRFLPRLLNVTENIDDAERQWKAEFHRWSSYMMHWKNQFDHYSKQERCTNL

[6] = target: T1, Amine oxidase [flavin-containing] A; assay: Reversible inhibition of MAOA (unknown origin) assessed as residual enzyme activity at 3.6 uM using kynuramine as substrate pre-incubated for 30 mins followed by dialysis with pH 7.2 sodium phosphate buffer relative to control; details: read-out: Activity
[7] = Permeability of the compound in PBS/EtOH at 100 ug/ml incubated for 16 hrs by PAMPA; assay type: ADME; details: read-out: permeability
[8] = target: T1, Amine oxidase [flavin-containing] A; assay: Reversible inhibition of MAOA (unknown origin) assessed as residual enzyme activity at 3.6 uM using kynuramine as substrate measured after 30 mins relative to control; details: 0.5 h, read-out: Activity
[9] = target: T1, Amine oxidase [flavin-containing] A; assay: Competitive inhibition of MAOA (unknown origin) using varying levels of kynuramine as substrate preincubated for 15 mins followed by substrate addition and measured by Lineweaver-burk plot analysis
[10] = target: T2, Amine oxidase [flavin-containing] B; assay: Reversible inhibition of MAOB (unknown origin) assessed as residual enzyme activity at 0.54 uM using benzylamine as substrate measured after 30 mins relative to control; details: 0.5 h, read-out: Activity
[11] = target: T2, Amine oxidase [flavin-containing] B; assay: Reversible inhibition of MAOB (unknown origin) assessed as residual enzyme activity at 0.54 uM using benzylamine as substrate pre-incubated for 30 mins followed by dialysis with pH 7.2 sodium phosphate buffer relative to control; details: read-out: Activity
[12] = species: Homo sapiens; assay: Selectivity index, ratio of IC50 for MAOA (unknown origin) to IC50 for MAOB (unknown origin)
[13] = target: T2, Amine oxidase [flavin-containing] B; assay: Competitive inhibition of MAOB (unknown origin) using varying levels of benzylamine as substrate preincubated for 15 mins followed by substrate addition and measured by Lineweaver-burk plot analysis
[14] = target: T2, Amine oxidase [flavin-containing] B; details: 0.5 h
[15] = target: T2, Amine oxidase [flavin-containing] B; assay: Reversible inhibition of MAOB (unknown origin) assessed as residual enzyme activity at 0.08 uM using benzylamine as substrate pre-incubated for 30 mins followed by dialysis with pH 7.2 sodium phosphate buffer relative to control; details: read-out: Activity
[16] = target: T2, Amine oxidase [flavin-containing] B; assay: Reversible inhibition of MAOB (unknown origin) assessed as residual enzyme activity at 0.08 uM using benzylamine as substrate measured after 30 mins relative to control; details: 0.5 h, read-out: Activity
[17] = target: T1, Amine oxidase [flavin-containing] A; assay: Reversible inhibition of MAOA (unknown origin) assessed as residual enzyme activity at 2 uM using kynuramine as substrate pre-incubated for 30 mins followed by dialysis with pH 7.2 sodium phosphate buffer relative to control; details: read-out: Activity
[18] = target: T1, Amine oxidase [flavin-containing] A; assay: Reversible inhibition of MAOA (unknown origin) assessed as residual enzyme activity at 2 uM using kynuramine as substrate measured after 30 mins relative to control; details: 0.5 h, read-out: Activity
[19] = target: T1, Amine oxidase [flavin-containing] A; assay: Irreversible inhibition of MAOA (unknown origin) assessed as residual enzyme activity at 0.014 uM using kynuramine as substrate measured after 30 mins relative to control; details: 0.5 h, read-out: Activity
[20] = target: T1, Amine oxidase [flavin-containing] A; assay: Irreversible inhibition of MAOA (unknown origin) assessed as residual enzyme activity at 0.014 uM using kynuramine as substrate pre-incubated for 30 mins followed by dialysis with pH 7.2 sodium phosphate buffer relative to control; details: read-out: Activity

Row | SMILES | activity at 10 µM [1] | IC50 [2] | IC50 [3] | activity at 10 µM [4] | IC50 [5] | Papp at 16 h, 100 ug/ml [7] | further results
1 | NC(=S)N/N=C/c1ccc(Cl)cc1 | 76% | > 10 µM | > 10 µM | 60.5% | > 40 µM |  | 
2 | NC(=S)N/N=C/c1ccc(Br)cc1 | 59.5% | > 10 µM | > 10 µM | 82.5% | 31.1 µM |  | 
3 | CN(C)c1ccc(/C=N/NC(N)=S)cc1 | 16.5% | 1.82 µM | > 10 µM | 82.3% | 35.3 µM | 10.1 ×10⁻⁶ cm/s | activity at 3.6 µM [6]: 70.3%; activity at 3.6 µM [8]: 34.7%; Ki [9]: 0.97 µM
4 | NC(=S)N/N=C/c1ccc(O)cc1 | 66% | > 10 µM | > 10 µM | 87.5% | > 40 µM |  | 
5 | NC(=S)N/N=C/c1cccc(F)c1 | 75.5% | > 10 µM | 0.27 µM | 3% | 26.6 µM | 13.1 ×10⁻⁶ cm/s | activity at 0.54 µM [10]: 27.4%; activity at 0.54 µM [11]: 81%; Ratio IC50 [12]: > 37; Ki [13]: 0.12 µM
6 | Cc1ccc(/C=N/NC(N)=S)cc1 | 56.5% | > 10 µM | > 10 µM | 91.5% | > 40 µM |  | 
7 | C#CCN(C)Cc1ccccc1 [PARGYLINE] |  |  |  |  |  |  | activity at 0.2 µM [14]: 27.9%
8 | NCCNC(=O)c1ccc(Cl)cn1 [LAZABEMIDE] |  | > 80 µM |  |  |  |  | activity at 0.08 µM [15]: 86.9%; activity at 0.08 µM [16]: 29.5%
9 | Cc1cccc(N2CC(CO)OC2=O)c1 (stereo not given) [TOLOXATONE] |  |  |  |  |  |  | activity at 2 µM [17]: 74%; activity at 2 µM [18]: 30.7%
10 | N=C(S)N/N=C/c1ccc(C(F)(F)F)cc1 | 92.5% | > 10 µM | > 10 µM | 77.5% | 36.2 µM |  | 
11 | NC(=S)N/N=C/c1ccccc1 [PHENYLTHIOSEMICARBAZONE] | 83.5% | > 10 µM | > 10 µM | 75.5% | > 40 µM |  | 
12 | CCc1ccc(/C=N/NC(N)=S)cc1 | 36% | 5.98 µM | > 10 µM | 86.2% | 26.7 µM | 9.44 ×10⁻⁶ cm/s | Ratio IC50 [12]: < 0.6
13 | COc1ccc(/C=N/NC(N)=S)cc1 | 37.5% | 4.99 µM | > 10 µM | 82.1% | 36.1 µM | 11.2 ×10⁻⁶ cm/s | Ratio IC50 [12]: < 0.5
14 | NC(=S)N/N=C/c1ccc(F)cc1 | 84.5% | > 10 µM | > 10 µM | 86.5% | 37.9 µM |  | 
15 | NC(=S)N/N=C/c1ccccc1F | 77.5% | > 10 µM | 7.61 µM | 33.5% | 30.8 µM | 10.3 ×10⁻⁶ cm/s | Ratio IC50 [12]: > 1.31
16 | N/C(S)=N/N=C/c1ccc([N+](=O)[O-])cc1 | 75.5% | > 10 µM | 1.43 µM | 7.5% | 15.6 µM | 12.8 ×10⁻⁶ cm/s | Ratio IC50 [12]: > 6.99
17 | C#CCN(C)CCCOc1ccc(Cl)cc1Cl [CLORGILINE] |  |  |  |  |  |  | activity at 0.014 µM [19]: 21.4%; activity at 0.014 µM [20]: 19.8%

Reference: ChEMBL document CHEMBL4368868, “Selected aryl thiosemicarbazones as a new class of multi-targeted monoamine oxidase inhibitors” (Medchemcomm, 2018)
